Assays:
Experiment in all cases: Kinase inhibitor library screening, PrestoBlue cell viability, 1 or 10 μM, 72 h
[1] = tested on: 501Mel-GP cells (Dabrafenib-resistant); settings: 72 h
Method: (§1) After 72 h of treatment, cell viability was assessed using the PrestoBlue Cell Viability Reagent (ThermoFisher Scientific). Measurements were performed with the CLARIOstar Monochromator microplate reader (BMG Labtech).
(§2) Kinase inhibitor library screening. […] Each cell line was treated in its sensitive form (parental), and also as 2 resistant derivatives, which were made resistant to either Vemurafenib (XP) or Dabrafenib (GP). Drugs were added at 2 different concentrations, 1 and 10 μM, for 72 h and cell viability was assessed using the PrestoBlue Cell Viability assay. Results are depicted as % viability compared to untreated cells. Each cell line was analyzed at least in duplicate. […] (XLSX 95 kb)

[2] = tested on: IGR37-GP cells (Dabrafenib-resistant)
Method: as §1, §2

[3] = tested on: A375-GP cells (Dabrafenib-resistant)
Method: as §1, §2

[4] = tested on: IGR37 cells (parental)
Method: as §1, §2

[5] = tested on: A375-XP cells (Vemurafenib-resistant)
Method: as §1, §2

[6] = tested on: 501Mel-XP cells (Vemurafenib-resistant); settings: 72 h
Method: as §1, §2

[7] = tested on: IGR37-XP cells (Vemurafenib-resistant)
Method: as §1, §2

[8] = tested on: 501Mel cells (parental); settings: 72 h
Method: as §1, §2

[9] = tested on: A375 cells (parental)
Method: as §1, §2

Structure (SMILES): S=C(NCc1ccc2c(c1)OCO2)N1CCN(c2ncnc3c2oc2ccccc23)CC1 [Amuvatinib (MP-470)]
- cell viability (kinase inhibitor library screening) ([1]; 501Mel GP, 1μΜ): 105.2%
- cell viability (kinase inhibitor library screening) ([1]; 501Mel GP, 10μΜ): 86.9%
- cell viability (kinase inhibitor library screening) ([2]; IGR37 GP, 1μΜ, 72 h): 94.7%
- cell viability (kinase inhibitor library screening) ([2]; IGR37 GP, 10μΜ, 72 h): 95.7%
- cell viability (kinase inhibitor library screening) ([3]; A375 GP, 1μΜ, 72 h): 95.9%
- cell viability (kinase inhibitor library screening) ([3]; A375 GP, 10μΜ, 72 h): 84.4%
- cell viability (kinase inhibitor library screening) ([4]; IGR37 Parental, 1μΜ, 72 h): 95.9%
- cell viability (kinase inhibitor library screening) ([4]; IGR37 Parental, 10μΜ, 72 h): 97.0%
- cell viability (kinase inhibitor library screening) ([5]; A375 XP, 1μΜ, 72 h): 104.7%
- cell viability (kinase inhibitor library screening) ([5]; A375 XP, 10μΜ, 72 h): 94.9%
- cell viability (kinase inhibitor library screening) ([6]; 501Mel XP, 1μΜ): 100.3%
- cell viability (kinase inhibitor library screening) ([6]; 501Mel XP, 10μΜ): 88.3%
- cell viability (kinase inhibitor library screening) ([7]; IGR37 XP, 10μΜ, 72 h): 77.9%
- cell viability (kinase inhibitor library screening) ([8]; 501Mel Parental, 1μΜ): 98.9%
- cell viability (kinase inhibitor library screening) ([8]; 501Mel Parental, 10μΜ): 98.9%
- cell viability (kinase inhibitor library screening) ([9]; A375 Parental, 10μΜ, 72 h): 84.8%
- cell viability (kinase inhibitor library screening) ([9]; A375 Parental, 1μΜ, 72 h): 97.4%

Structure (SMILES): Cc1cc(Nc2ncnc3ccc(NC4=NC(C)(C)CO4)cc23)ccc1Oc1ccn2ncnc2c1 [Arry-380]
- viability at 1 µM ([1]; Homo sapiens, read-out: cell viability, 501Mel GP, 1μΜ): 101%
- viability at 10 µM ([1]; Homo sapiens, read-out: cell viability, 501Mel GP, 10μΜ): 56.8%
- viability at 1 µM ([2]; Homo sapiens, IGR-37, 72 h, read-out: cell viability, IGR37 GP, 1μΜ): 96.4%
- viability at 10 µM ([2]; Homo sapiens, IGR-37, 72 h, read-out: cell viability, IGR37 GP, 10μΜ): 57.2%
- viability at 1 µM ([3]; Homo sapiens, A-375, 72 h, read-out: cell viability, A375 GP, 1μΜ): 105%
- viability at 10 µM ([3]; Homo sapiens, A-375, 72 h, read-out: cell viability, A375 GP, 10μΜ): 77.8%
- viability at 1 µM ([4]; Homo sapiens, IGR-37, 72 h, read-out: cell viability, IGR37 Parental, 1μΜ): 108%
- viability at 10 µM ([4]; Homo sapiens, IGR-37, 72 h, read-out: cell viability, IGR37 Parental, 10μΜ): 103%
- viability at 1 µM ([5]; Homo sapiens, A-375, 72 h, read-out: cell viability, A375 XP, 1μΜ): 106%
- viability at 10 µM ([5]; Homo sapiens, A-375, 72 h, read-out: cell viability, A375 XP, 10μΜ): 80.2%
- viability at 1 µM ([6]; Homo sapiens, read-out: cell viability, 501Mel XP, 1μΜ): 117%
- viability at 10 µM ([6]; Homo sapiens, read-out: cell viability, 501Mel XP, 10μΜ): 52.3%
- viability at 1 µM ([7]; Homo sapiens, IGR-37, 72 h, read-out: cell viability, IGR37 XP, 1μΜ): 99.7%
- viability at 10 µM ([7]; Homo sapiens, IGR-37, 72 h, read-out: cell viability, IGR37 XP, 10μΜ): 24.3%
- viability at 1 µM ([8]; Homo sapiens, read-out: cell viability, 501Mel Parental, 1μΜ): 103%
- viability at 10 µM ([8]; Homo sapiens, read-out: cell viability, 501Mel Parental, 10μΜ): 69.6%
- viability at 1 µM ([9]; Homo sapiens, A-375, 72 h, read-out: cell viability, A375 Parental, 1μΜ): 105%
- viability at 10 µM ([9]; Homo sapiens, A-375, 72 h, read-out: cell viability, A375 Parental, 10μΜ): 89.6%

Structure (SMILES): CCN1CCN(C(=O)Cc2ccc(Nc3ncc(F)c(Nc4ccc(C(=O)Nc5ccccc5Cl)cc4)n3)cc2)CC1 [Aurora A Inhibitor I]
- cell viability (kinase inhibitor library screening) ([1]; 501Mel GP, 1μΜ): 99.5%
- cell viability (kinase inhibitor library screening) ([1]; 501Mel GP, 10μΜ): 29.4%
- cell viability (kinase inhibitor library screening) ([2]; IGR37 GP, 1μΜ, 72 h): 90.4%
- cell viability (kinase inhibitor library screening) ([2]; IGR37 GP, 10μΜ, 72 h): 5.3%
- cell viability (kinase inhibitor library screening) ([3]; A375 GP, 1μΜ, 72 h): 90.9%
- cell viability (kinase inhibitor library screening) ([3]; A375 GP, 10μΜ, 72 h): 42.7%
- cell viability (kinase inhibitor library screening) ([4]; IGR37 Parental, 1μΜ, 72 h): 94.5%
- cell viability (kinase inhibitor library screening) ([4]; IGR37 Parental, 10μΜ, 72 h): 4.6%
- cell viability (kinase inhibitor library screening) ([5]; A375 XP, 1μΜ, 72 h): 95.8%
- cell viability (kinase inhibitor library screening) ([5]; A375 XP, 10μΜ, 72 h): 37.0%
- cell viability (kinase inhibitor library screening) ([6]; 501Mel XP, 1μΜ): 75.4%
- cell viability (kinase inhibitor library screening) ([6]; 501Mel XP, 10μΜ): 4.3%
- cell viability (kinase inhibitor library screening) ([7]; IGR37 XP, 1μΜ, 72 h): 92.1%
- cell viability (kinase inhibitor library screening) ([7]; IGR37 XP, 10μΜ, 72 h): 2.4%
- cell viability (kinase inhibitor library screening) ([8]; 501Mel Parental, 1μΜ): 105.7%
- cell viability (kinase inhibitor library screening) ([8]; 501Mel Parental, 10μΜ): 41.4%
- cell viability (kinase inhibitor library screening) ([9]; A375 Parental, 10μΜ, 72 h): 48.5%
- cell viability (kinase inhibitor library screening) ([9]; A375 Parental, 1μΜ, 72 h): 96.9%

Structure (SMILES): Cn1c(=O)n(-c2ccc(C(C)(C)C#N)cc2)c2c3cc(-c4cnc5ccccc5c4)ccc3ncc21 [BEZ235 (NVP-BEZ235)]
- Cell viability in kinase inhibitor library screening, 501Mel GP, 1μΜ ([1]; 501Mel GP, 1μΜ, in %): 19.1
- Cell viability in kinase inhibitor library screening, 501Mel GP, 10μΜ ([1]; 501Mel GP, 10μΜ, in %): 6.4
- Cell viability in kinase inhibitor library screening, IGR37 GP, 10μΜ ([2]; IGR37 GP, 10μΜ, 72 h): 6.1%
- Cell viability in kinase inhibitor library screening, IGR37 GP, 1μΜ ([2]; IGR37 GP, 1μΜ, 72 h, in %): 53.8
- Cell viability in kinase inhibitor library screening, A375 GP, 1μΜ ([3]; A375 GP, 1μΜ, 72 h): 22.0
- Cell viability in kinase inhibitor library screening, A375 GP, 10μΜ ([3]; A375 GP, 10μΜ, 72 h): 8.5
- Cell viability in kinase inhibitor library screening, IGR37 Parental, 1μΜ ([4]; IGR37 Parental, 1μΜ, 72 h, in %): 26.1
- Cell viability in kinase inhibitor library screening, IGR37 Parental, 10μΜ ([4]; IGR37 Parental, 10μΜ, 72 h, in %): 12.4
- Cell viability in kinase inhibitor library screening, A375 XP, 1μΜ ([5]; A375 XP, 1μΜ, 72 h): 20.9
- Cell viability in kinase inhibitor library screening, A375 XP, 10μΜ ([5]; A375 XP, 10μΜ, 72 h): 13.2
- Cell viability in kinase inhibitor library screening, 501Mel XP, 1μΜ ([6]; 501Mel XP, 1μΜ, in %): 11.4
- Cell viability in kinase inhibitor library screening, 501Mel XP, 10μΜ ([6]; 501Mel XP, 10μΜ, in %): 0.9
- Cell viability in kinase inhibitor library screening, IGR37 XP, 10μΜ ([7]; IGR37 XP, 10μΜ, 72 h): 5.2%
- Cell viability in kinase inhibitor library screening, IGR37 XP, 1μΜ ([7]; IGR37 XP, 1μΜ, 72 h, in %): 49.3
- Cell viability in kinase inhibitor library screening, 501Mel Parental, 1μΜ ([8]; 501Mel Parental, 1μΜ, in %): 13.9
- Cell viability in kinase inhibitor library screening, 501Mel Parental, 10μΜ ([8]; 501Mel Parental, 10μΜ, in %): 2.6
- Cell viability in kinase inhibitor library screening, A375 Parental, 10μΜ ([9]; A375 Parental, 10μΜ, 72 h): 10.9
- Cell viability in kinase inhibitor library screening, A375 Parental, 1μΜ ([9]; A375 Parental, 1μΜ, 72 h): 23.9

From paper PMC6364417, “Kinase inhibitor library screening identifies synergistic drug combinations effective in sensitive and resistant melanoma cells” (Journal of Experimental & Clinical Cancer Research : CR, 2019)
